Experimental data from patent US5837684A, “Peptides” (Nycomed Imaging AS, priority 1995, dated 1998).
pIC50: −log10 of the molar value.

Legend:
[1] = target: binary complex of TF/FVIIa (Homo sapiens, UniProt P00742); assay: lipidated TF assay (chromogenic assay measuring the FXa generated by TF/FVIIa); type: biochemical; conditions: for pIC50: FVIIa 5 pM, FX 20 nM, TF 5 pM, CaCl2 5 mM, 15 min preincubation at ambient temperature, FXa substrate S2765, read-out: IC50: concentration of peptide inhibiting the rate of FX activation by 50%; for IC values (statement in words): lipidated TF assay, summary of Table 1
Experimental: The inhibitory capacity of the peptides was measured by a so-called lipidated TF assay which is a chromogenic assay measuring the FXa generated by the binary complex of TF/FVIIa. FVIIa (5 pM final concentration) and FX (20 nM) were combined in the presence of different concentrations of peptide and incubated for 15 min at ambient temperature. TF (5 pM) and CaCl2 (5 mM) were added to initiate the reaction. Reactions were quenched with EDTA and the FXa activity was measured in an amidolytic assay, using the chromogenic FXa substrate S2765 (trade name). Data from these studies with this assay are shown in FIG. 1, and Table 1 hereinafter gives the corresponding IC values. Data are plotted as the percentage of the rate of FXa formation determined without peptide versus the concentration of the following peptides: hu#154-163 (SEQ. ID. NO. 1) (.circle-solid.), mu#158-167 (SEQ. ID. NO. 2) (x) and rb#152-161 (SEQ. ID. NO. 3) (Δ).

[2] = target: TF/FVIIa complex (FX activation) (Homo sapiens, UniProt P00742); assay: Dixon plot analysis of the inhibitory mechanism of FXa formation; type: biochemical; conditions: Dixon plots; three FX concentrations or three TF concentrations in excess of FVIIa
Experimental: Different concentrations of peptide were mixed with FVIIa and three different concentrations of FX and, after addition of TF, the rate of FXa formation was determined. In another experiment, different concentrations of peptide were mixed with FVIIa and three different concentrations of TF, in excess of FVIIa. After addition of FX, the rate of FXa formation was determined. Results were plotted according to Dixon, the inverse of the rate of FXa formation versus peptide concentration. Peptide mu#158-167 (SEQ. ID. No. 2), produced linear regression lines, which intercepted on the abscissa (different FX concentrations) or above the abscissa (different TF concentrations).

Sequence of binary complex of TF/FVIIa (P00742 41-179 limits assumed): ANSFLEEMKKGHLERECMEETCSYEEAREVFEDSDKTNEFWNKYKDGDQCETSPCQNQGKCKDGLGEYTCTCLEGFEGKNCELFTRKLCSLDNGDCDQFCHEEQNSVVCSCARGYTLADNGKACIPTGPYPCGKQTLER
Sequence of binary complex of TF/FVIIa (P00742 235-488 limits assumed): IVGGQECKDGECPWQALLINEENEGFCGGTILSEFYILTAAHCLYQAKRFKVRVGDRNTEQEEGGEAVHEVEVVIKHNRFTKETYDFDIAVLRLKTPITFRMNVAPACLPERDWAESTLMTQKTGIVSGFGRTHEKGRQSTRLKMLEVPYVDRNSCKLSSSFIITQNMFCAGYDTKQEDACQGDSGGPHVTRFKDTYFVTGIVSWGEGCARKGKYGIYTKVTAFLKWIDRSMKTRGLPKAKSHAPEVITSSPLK
Sequence of TF/FVIIa complex (FX activation) (P00742 41-179 limits assumed): as the sequence (P00742 41-179 limits assumed) above
Sequence of TF/FVIIa complex (FX activation) (P00742 235-488 limits assumed): as the sequence (P00742 235-488 limits assumed) above

Row | Substance | pIC50 [1] | IC values (statement in words) [1] | inhibitory mechanism of FXa formation [2]
1 | H--Thr--Leu--Tyr--Tyr--Trp--Arg--Ala--Ser--Ser--Thr--OH (H-TLYYWRASST-OH) [rb#152-161, 10-mer of rabbit TF residues 152-161] | 4.85 | very low μm range | 
2 | H-IITYRKGSST-OH [mu#158-167, H--Ile--Ile--Thr--Tyr--Arg--Lys--Gly--Ser--Ser--Thr--OH] | 4.68 | very low μm range | competes with TF or FVIIa/TF complex for interaction with FX
3 | H-TLYYWKSSSS-OH [hu#154-163, H--Thr--Leu--Tyr--Tyr--Trp--Lys--Ser--Ser--Ser--Ser--OH] | 4.00 |  | 
